Experimental data taken from paper PMC8709211, “Improving Membrane Activity and Cargo Delivery Efficacy of a Cell-Penetrating Peptide by Loading with Carboranes” (Pharmaceutics, 2021).

Legend:
HeLa cells [1] = experiment: Cell viability assay (resazurin); type: cell-based; conditions: 37 °C, serum-free medium, 125 nM–100 µM, relative to untreated cells
Method: In total, 17.000 HeLa cells per well were seeded onto 96-well plates (Sarstedt, Nümbrecht, Germany). After confluency of 80–90% was reached, the growth medium was removed, and cells were incubated with 100 µL of peptide solution of different concentrations (125 nM–100 μM in serum-free medium) for 24 h at 37 °C. For a positive control, cells were treated with 70% EtOH for 10 min. Cells were washed with serum-free medium and incubated with 10% (v/v) resazurin (Sigma-Aldrich, Merck group: Darmstadt, Germany) in serum-free medium for 1.5 h at 37 °C. Cell viability was determined by measurement of the resorufin product at 595 nm (λex = 550 nm) on a Tecan infinite M200 plate reader (Tecan Group AG, Männedorf, Switzerland). Viability was calculated from the fluorescence values of treated cells in relation to untreated cells.

[2] = Circular dichroism spectroscopy (alpha-helical content, R-value); type: physicochemical; conditions: for % of alpha helix, 50% TFE / % of alpha helix, Phosphate Buffer: CD, calculated per ref 31; for % of alpha helix, 50% TFE: 20 µM peptide in 10 mM phosphate buffer (pH 7.0) with 50% TFE (v/v); for % of alpha helix, Phosphate Buffer / R-value, Phosphate Buffer: 20 µM peptide in 10 mM phosphate buffer (pH 7.0); for R-value, Phosphate Buffer / R-value, 50% TFE: ratio between the molar ellipticity values at 222 and 208 nm; for R-value, 50% TFE: 20 µM peptide in 10 mM phosphate buffer (pH 7.0) with 50% TFE
Method: Conjugates were dissolved in 10 mM phosphate buffer (pH 7.0), either alone or supplemented with 50% TFE (v/v), to a final concentration of 20 µM. CD spectra of all conjugates were recorded from 180–260 nm (0.5 nm intervals) on a J-715 spectropolarimeter (JASCO, Pfungstadt, Germany) in an N2 atmosphere.
To find out more, we performed CD spectroscopy for all peptides solved either in phosphate buffer or in phosphate buffer supplemented with trifluoroethanol (TFE), respectively. All conjugates and sC18 adopted an alpha-helix, when present in phosphate buffer with TFE (Figure S20). On the other hand, when CB-conjugates were solved in phosphate buffer only (Figure 1C), some of them directly formed distinct secondary structures. […] Taking this observation into account, we concluded that the number of CB moieties actually promoted the formation of alpha-helical structures. This effect might be further explained by the helical wheel projection of each conjugate showing that the hydrophobic face of the peptide was clearly enlarged when three or more CB units were attached (see Figure S21). […]

[3] = Critical micelle concentration (CMC) determination by UV-VIS; type: physicochemical; conditions: peptide in water, 1–200 µM; UV absorbance at 255 nm plotted against logarithm of peptide concentration, intersection point of two lines
Method: Peptide conjugates were dissolved in water and different concentrations (1–200 µM) were prepared. UV-VIS spectra ranging from 200–700 nm were recorded using a 1 cm path length quartz cuvette in a Spectroquant Pharo 300 photometer (Merck, Darmstadt, Germany). The absorbance at 255 nm was plotted against the logarithm of the peptide concentration. The intersection point of two lines was determined as CMC.
Since this effect was obviously dependent on the hydrophobic nature of the conjugates, we were then interested in whether they would also self-assemble and form nanostructures, such as micelles or fibrils. An easy to apply and fast method makes use of changes in spectroscopic properties associated with micelle formation. For this, one measures the UV absorbance at a specific wavelength as a function of the concentration. Because aggregates like micelles and free molecule species contribute to a different extent to the absorbed UV light, an abrupt change of the slope occurs above a certain point. The corresponding concentration is defined as the critical micelle concentration (CMC). We measured the UV-VIS spectra of all CB-sC18 conjugates and observed for all an additional concentration-dependent maximum at 255 nm (Figure 1A,B and Table 2), whereas this maximum was not detected for meta-carborane-1-carboxylic acid (Figure S14) or sC18 alone (Figure S15).
Thus, we hypothesized this maximum as evidence for a possible self-assembly, and by plotting the absorbance at 255 nm against the logarithm of the peptide concentration, we assigned the intersection point as CMC.

[4] = CF-leakage assay, negatively charged LUVs; conditions: 1 µM peptide, 25 °C, 90 min; fluorescence, normalized to Triton x-100; duplicate, n = 2
Method: (§1) Large unilamellar vesicles (LUVs) were prepared by dissolving different lipids in CHCl3, to reach the desired compositions (lipids were purchased from Avanti Polar Lipids, Inc., Alabaster, AL, USA). To remove the solvent, the mixture was placed into a round-bottomed flask on ice and the solvent was evaporated under reduced pressure for 20 min at 40 °C and afterwards under vacuum for another 5 min. The dried lipid film was then hydrated with HKS buffer (25 mM HEPES, 150 mM KCl, pH 7.4, 10% sucrose (w/v)), supplemented with 100 mM 5(6)-carboxyfluorescein (CF), and homogenized for 5 min at 45 °C to form liposomes (final concentration: 8 mM). The resulting multilamellar vesicle dispersion underwent 10 freeze/thawing cycles and was passed 21 times through a mini extruder (0.4 µm polycarbonate treck-etch membrane; Avanti Polar Lipids, Inc., Alabaster, AL, USA). External CF was removed by size exclusion chromatography (PD10 column, GE Healthcare, Chicago, IL, USA). Peptides were added to the LUVs and the CF release was monitored by measuring the increased fluorescence intensity on a plate reader (Biotek, Winooski, VT, USA). […]
(§2) Our results thus far inspired us to investigate how the novel CB-conjugates would perform in a lipid environment. […] Both lipid systems were additionally loaded with CF in order to monitor membrane leakage via fluorescence dye outflow.

[5] = CF-leakage assay, zwitterionic LUVs; conditions: 1 µM peptide, 25 °C, 90 min; fluorescence, normalized to Triton x-100; duplicate, n = 2
Method: as §1, §2

HeLa cells [6] = experiment: Cellular uptake by flow cytometry; type: cell-based; conditions: 1 µM CF-labeled peptide, serum-free medium, 30 min, 37 °C, triplicate, n = 3
Method: HeLa cells were seeded onto 24-well plates (Sarstedt, Nümbrecht, Germany, 100,000 cells per well, respectively). After reaching 80–90% confluency, medium was removed, and cells were incubated with 1 µM CF-labeled peptide solution in serum-free medium for either 30 min or 2 h at 37 °C. The peptide solution was removed, cells were washed twice with PBS, and trypsinized for 5 min. Detached cells were resuspended in full medium (phenol red free) and afterwards analyzed using a guava easycyte HT flow cytometer (Merck, Darmstadt, Germany).

human red blood cells = experiment: Hemolysis assay; type: cell-based; conditions: human RBCs 5% (v/v in PBS), 37 °C, up to 25 µM peptide, absorption at 560 nm, normalized to Triton-x-100 control, triplicate, n = 2
Method: Human red blood cells were washed five times with PBS (4 °C, 3000× g, 5 min) and diluted to 5% (v/v in PBS). In total, 100 µL of this solution were transferred into a fresh 96-well plate. In total, 50 µL of peptide solution were added and gently resuspended. Red blood cells were incubated for either 1 or 24 h at 37 °C and 5% CO2, respectively. In total, 50 µL of 10% Triton-x-100 were added 10 min prior to the end of the incubation time and served as a positive control. After incubation, cells were centrifuged (r.t., 2500× g, 3 min). The supernatant was carefully transferred into a fresh 96-well plate and the absorption at 560 nm was measured on a Tecan infinite M200 plate reader (Tecan Group AG, Männedorf, Switzerland). The measured absorption referred to the hemoglobin concentration.
Next, we incubated human red blood cells (RBCs) with different concentrations of CB-sC18 conjugates at 37 °C for 1 or 24 h, respectively. Since their cell membranes are mainly composed of neutral lipids, RBCs serve as an excellent biological model for the lytic activity of a peptide. […] For sC18, this agreed with the detected low activity when in contact with zwitterionic LUVs. […] The same activity profile was observed when incubating peptide conjugates with RBCs for only one hour (Figure S30), whereas the effects started at concentrations higher than 5 µM. […]

Substance	Cytotoxicity towards HeLa cells, 24 h (HeLa cells [1])	% of alpha helix, 50% TFE [2]	% of alpha helix, Phosphate Buffer [2]	R-value, Phosphate Buffer [2]	R-value, 50% TFE [2]	CMC [3]	CF release (leakage) from negatively charged LUVs [4]	CF release (leakage) from zwitterionic LUVs [5]	Cellular uptake into HeLa cells, 30 min (HeLa cells [6])	Hemolytic activity towards RBCs, 24 h (human red blood cells)
meta-carborane-1-carboxylic acid [reference compound]	nearly no cytotoxicity	–	–	–	–	–	–	–	–	–
CB-KKKK-GLRKRLRKFRNKIKEK [CB5-sC18, sC18 conjugate bearing five meta-carborane clusters]	–	50.15%	21.09%	0.87	0.92	44.37 ± 1.16 µM	increased outflow of CF	same leakage profile as CB1-sC18	decreased again	–
KK-GLRKRLRKFRNKIKEK [CB2-sC18, sC18 conjugate bearing two meta-carborane clusters]	–	60.49%	5.45%	–	0.89	–	–	–	–	able to lyse RBCs
LLIILRRRIRKQAHAHSK [pVEC, VE-cadherin-derived cell-penetrating peptide, reference compound]	–	48.60%	12.18%	0.37	0.73	–	–	–	–	–
K‐LLIILRRRIRKQAHAHSK [CB1-pVEC, pVEC conjugate bearing one meta-carborane cluster]	–	44.28%	17.72%	0.57	0.82	–	–	–	–	–
CB‐KKKK‐LLIILRRRIRKQAHAHSK [CB5-pVEC, pVEC conjugate bearing five meta-carborane clusters]	–	45.48%	22.96%	0.79	0.79	–	–	–	–	–
KKK‐LLIILRRRIRKQAHAHSK [CB3-pVEC, pVEC conjugate bearing three meta-carborane clusters]	–	65.76%	16.98%	0.99	0.82	–	–	–	–	–
KKKK‐LLIILRRRIRKQAHAHSK [CB4-pVEC, pVEC conjugate bearing four meta-carborane clusters]	–	59.84%	22.59%	0.92	0.84	–	–	–	–	–
KK‐LLIILRRRIRKQAHAHSK [CB2-pVEC, pVEC conjugate bearing two meta-carborane clusters]	–	51.36%	20.41%	0.84	0.82	–	–	–	–	–
KKK-GLRKRLRKFRNKIKEK [CB3-sC18, sC18 conjugate bearing three meta-carborane clusters]	–	56.10%	16.68%	0.56	0.88	44.46 ± 1.14 µM	–	–	–	–
